{"source": "paper PMC9954273", "about": "“Construction and Manipulation of Serial Gradient Dilution Array on a Microfluidic Slipchip for Screening and Characterizing Inhibitors against Human Pancreatic Lipase” (Biosensors, 2023)", "key": {"[1]": {"biological_target": "T1, human pancreatic lipase (hPL) (Homo sapiens, UniProt P16233)", "T1 sequence (P16233 17-465)": "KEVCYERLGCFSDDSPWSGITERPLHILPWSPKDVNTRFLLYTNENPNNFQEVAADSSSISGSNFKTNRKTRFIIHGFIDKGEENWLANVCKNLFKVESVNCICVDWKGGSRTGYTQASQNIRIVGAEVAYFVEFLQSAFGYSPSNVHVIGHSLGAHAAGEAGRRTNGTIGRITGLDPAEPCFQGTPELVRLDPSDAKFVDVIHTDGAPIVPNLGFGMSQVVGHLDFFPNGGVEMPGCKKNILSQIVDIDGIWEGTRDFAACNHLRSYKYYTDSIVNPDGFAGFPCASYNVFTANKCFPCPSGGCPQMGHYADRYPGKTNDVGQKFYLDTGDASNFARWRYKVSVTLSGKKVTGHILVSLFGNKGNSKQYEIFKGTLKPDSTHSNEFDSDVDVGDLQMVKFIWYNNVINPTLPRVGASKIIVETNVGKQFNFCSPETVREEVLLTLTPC", "experiment": "Fluorescence-based hPL inhibition assay on microfluidic SlipChip (DDAO-ol hydrolysis)", "assay_type": "biochemical", "details": "for inhibition of hPL-catalyzed DDAO-ol hydrolysis (in words): dose-inhibition curves, Figure 5; for IC50: substrate DDAO-ol 20 μM, hPL 0.25 μg/mL, seven 1:1 gradient concentrations, triplicate, read-out: IC50 against hPL (SlipChip)", "method": "Fluorescence-based assays were used to determine the residual activities of hPL in the presence of different concentrations of inhibitor, and to calculate the IC50 of the inhibitors. […] Then, the inhibitor at the initial concentration was injected into the P1 fluidic path, followed by injecting DMSO into the P2, P3 and P4 fluidic paths. After sliding the SlipChip as described in Section 2.3 with optimized conditions, seven microchambers containing inhibitors with gradient concentrations were formed. At the same time, the enzyme-substrate system was prepared by mixing 111 μL Tris-HCl (pH 7.4, 25 mM), 80 μL bile salts (0.1 mg/mL, final concentration), 1 μL hPL (dissolved in Tris-HCl buffer, 0.25 μg/mL, final concentration) and 8 μL substrate (DDAO-ol, dissolved in DMSO, 20 μM, final concentration). After pipetting out the residual DMSO in the new path (P5), the prepared enzyme-substrate mixture was immediately injected into the P5 fluidic path. Finally, the top layer was slipped down and to the right, transporting the serial gradient array of inhibitor to the solution of the enzyme-substrate system. […] After 3 min, […] The SlipChip device was then placed under the Olympus IX83 inverted microscope with the same fluorescent condition to obtain the photos of each microchamber. The gray value of the fluorescent photo was analyzed by ImageJ software. The residual activity of hPL was calculated using the following formula: the residual activity (%) = the fluorescence intensity of the test sample/the fluorescence intensity in negative control (DMSO only) × 100%.\nAll inhibition assays were performed in triplicate (three technical replicates) for each concentration of the inhibitors. IC50 and values were calculated using GraphPad Prism 7.0 (GraphPad Software, Inc., La Jolla, CA, USA)."}, "[2]": {"biological_target": "T1, human pancreatic lipase (hPL)", "details": "past studies of the authors, cited from earlier work"}}, "note": "Read-outs that look alike come from different tables or passages of the source.", "data": [{"molecule": "CCCCCCCCCCC[C@@H](C[C@@H]1OC(=O)[C@H]1CCCCCC)OC(=O)[C@H](CC(C)C)NC=O", "note": "[Orlistat]", "values": [{"measurement": "inhibition of hPL-catalyzed DDAO-ol hydrolysis (in words)", "setting": "[1]", "result": "strongly inhibited hPL-catalyzed DDAO-ol hydrolysis in a dose-dependent manner"}]}, {"molecule": "O=C(OC[C@H]1O[C@@H](OC(=O)c2cc(O)c(O)c(O)c2)[C@H](OC(=O)c2cc(O)c(O)c(O)c2)[C@@H](OC(=O)c2cc(O)c(O)c(O)c2)[C@@H]1OC(=O)c1cc(O)c(O)c(O)c1)c1cc(O)c(O)c(O)c1", "note": "[PGG, 1,2,3,4,6-penta-O-galloyl-β-D-glucopyranose]", "values": [{"measurement": "inhibition of hPL-catalyzed DDAO-ol hydrolysis (in words)", "setting": "[1]", "result": "strongly inhibited hPL-catalyzed DDAO-ol hydrolysis in a dose-dependent manner"}, {"measurement": "IC50", "setting": "[1]", "result": 8.22, "unit": "nM"}, {"measurement": "IC50", "setting": "[2]; read-out: IC50, anti-hPL activity", "result": 7.59, "unit": "nM"}]}, {"molecule": "COc1ccc(-c2cc(=O)c3c(O)cc(O)c(-c4cc(-c5cc(=O)c6c(O)cc(OC)cc6o5)ccc4OC)c3o2)cc1", "note": "[sciadopitysin]", "values": [{"measurement": "inhibition of hPL-catalyzed DDAO-ol hydrolysis (in words)", "setting": "[1]", "result": "strongly inhibited hPL-catalyzed DDAO-ol hydrolysis in a dose-dependent manner"}, {"measurement": "IC50", "setting": "[1]", "result": 800, "unit": "nM"}, {"measurement": "IC50", "setting": "[2]; read-out: IC50, inhibitory effect on hPL", "result": 750, "unit": "nM"}]}]}
